According to patent US20030073862A1, “Compounds” (priority 2001, published 2003):

Legend:
human PPARγ LBD = human PPARγ LBD (Homo sapiens, UniProt P37231); conditions: FIG. 1
human PPARγ LBD, sequence (P37231 238-503 limits assumed): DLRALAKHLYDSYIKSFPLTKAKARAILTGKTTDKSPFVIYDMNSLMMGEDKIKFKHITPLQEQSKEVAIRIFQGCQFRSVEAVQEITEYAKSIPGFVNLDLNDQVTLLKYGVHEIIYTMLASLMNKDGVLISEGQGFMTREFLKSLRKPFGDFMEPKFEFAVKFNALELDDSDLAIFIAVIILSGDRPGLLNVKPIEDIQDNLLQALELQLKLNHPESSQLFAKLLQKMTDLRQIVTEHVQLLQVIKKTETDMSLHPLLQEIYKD

melting point: 165 to 168 °C
SMILES: O=C(Nc1ccc(OCc2cccs2)cc1C(=O)[O-])c1ccc(Cl)cc1Cl.[Li+] [Example 1, Lithium 2-[(2,4-dichlorobenzoyl)amino]-5-(2-thienylmethoxy)benzoate]
location of the compound in the structure of the human PPARγ LBD complex (human PPARγ LBD): located in the ligand binding pocket of human PPARγ
